We go through 26 compounds from patent US8563542B2 (Cyclacel Limited, priority 2007, dated 2013).

As usually defined, the IC50 is the concentration needed to halve the response being measured.

For the test, the target named is PLK1 (Homo sapiens, UniProt P53350). As to the kind of experiment: PLK1 protein kinase assay (CDC25C phosphorylation, [γ-32P]-ATP). Format: biochemical. As to conditions: Table 2, PLK1 IC50; class symbols; read-out: PLK1 IC50.
PLK1, sequence (P53350 whole entry): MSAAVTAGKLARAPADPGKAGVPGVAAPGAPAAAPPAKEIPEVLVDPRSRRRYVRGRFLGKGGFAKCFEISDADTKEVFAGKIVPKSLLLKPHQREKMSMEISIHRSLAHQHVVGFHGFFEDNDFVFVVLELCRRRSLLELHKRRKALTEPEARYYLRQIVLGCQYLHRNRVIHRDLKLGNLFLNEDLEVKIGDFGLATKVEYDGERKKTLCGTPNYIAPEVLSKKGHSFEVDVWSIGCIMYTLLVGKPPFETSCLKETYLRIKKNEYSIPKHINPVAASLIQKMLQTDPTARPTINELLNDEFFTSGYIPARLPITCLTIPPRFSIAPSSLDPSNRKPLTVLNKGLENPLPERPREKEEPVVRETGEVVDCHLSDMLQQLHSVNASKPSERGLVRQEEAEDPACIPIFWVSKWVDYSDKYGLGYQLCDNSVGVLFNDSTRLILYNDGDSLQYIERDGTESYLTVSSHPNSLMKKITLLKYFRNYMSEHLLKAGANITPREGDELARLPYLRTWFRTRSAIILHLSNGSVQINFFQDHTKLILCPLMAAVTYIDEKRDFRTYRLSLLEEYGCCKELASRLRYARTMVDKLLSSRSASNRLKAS
Consider `COc1ccc(C(=O)NCC2CCN(C)CC2)cc1Nc1ncc2c(n1)N(C1CCCC1)CCC(=O)N2C` [compound 235, 3-(9-Cyclopentyl-5-methyl-6-oxo-6,7,8,9-tetrahydro-5H-pyrimido[4,5-b][1,4]diazepin-2-ylamino)-4-methoxy-N-(1-methyl-piperidin-4-ylmethyl)-benzamide], for which the 50% inhibitory concentration (IC50) is below 1000 nM.
Next, `CCN1CCC(NC(=O)c2ccc(Nc3ncc4c(n3)N(C3CCCC3)CCC(=O)N4C)c(OC)c2)CC1` [compound 237, 4-(9-Cyclopentyl-5-methyl-6-oxo-6,7,8,9-tetrahydro-5H-pyrimido[4,5-b][1,4]diazepin-2-ylamino)-N-(1-ethyl-piperidin-4-yl)-3-methoxy-benzamide]: below 100 nM; `COc1cc(C(=O)NC2CCN(CC3CC3)CC2)ccc1Nc1ncc2c(n1)N(C1CCCC1)CCC(=O)N2C` [compound 238, 4-(9-Cyclopentyl-5-methyl-6-oxo-6,7,8,9-tetrahydro-5H-pyrimido[4,5-b][1,4]diazepin-2-ylamino)-N-(1-cyclopropylmethyl-piperidin-4-yl)-3-methoxy-benzamide]: below 100 nM; `COc1cc(C(=O)O)ccc1Nc1ncc2c(n1)N(C1CCCC1)CC1(CC1)C(=O)N2C` [compound 239, 4-(9-Cyclopentyl-5-methyl-6-oxo-6,7,8,9-tetrahydro-5H-pyrimido[4,5-b][1,4]diazepin-3,1′-cyclopropane-2-ylamino)-3-methoxy-benzoic acid]: below 1000 nM.
As to `COc1cc(C(=O)NC2CCN(Cc3ccccc3)CC2)ccc1Nc1ncc2c(n1)N(CC1CC1)CCC(=O)N2C` [compound 241, N-(1-Benzyl-piperidin-4-yl)-4-(9-cyclopropylmethyl-5-methyl-6-oxo-6,7,8,9-tetrahydro-5H-pyrimido[4,5-b][1,4]diazepin-2-ylamino)-3-methoxy-benzamide], the half-inhibitory concentration (IC50) was below 1000 nM.
The value for `COc1cc(C(=O)NCC2CCN(C)CC2)ccc1Nc1ncc2c(n1)N(CC1CC1)CCC(=O)N2C` [compound 242, 4-(9-Cyclopropylmethyl-5-methyl-6-oxo-6,7,8,9-tetrahydro-5H-pyrimido[4,5-b][1,4]diazepin-2-ylamino)-3-methoxy-N-(1-methyl-piperidin-4-ylmethyl)-benzamide] was below 1000 nM; that for `COc1cc(C(=O)NC2CN3CCC2CC3)ccc1Nc1ncc2c(n1)N(CC1CC1)CCC(=O)N2C` (centres unmarked) [compound 243, N-(1-Aza-bicyclo[2.2.2]oct-3-yl)-4-(9-cyclopropylmethyl-5-methyl-6-oxo-6,7,8,9-tetrahydro-5H-pyrimido[4,5-b][1,4]diazepin-2-ylamino)-3-methoxy-benzamide] was below 1000 nM.
On to `COc1cc(C(=O)NC2CC(C)(C)N(C)C(C)(C)C2)ccc1Nc1ncc2c(n1)N(CC1CC1)CCC(=O)N2C` [compound 244, 4-(9-Cyclopropylmethyl-5-methyl-6-oxo-6,7,8,9-tetrahydro-5H-pyrimido[4,5-b][1,4]diazepin-2-ylamino)-3-methoxy-N-(1,2,2,6,6-pentamethyl-piperidin-4-yl)-benzamide], for which the IC50 was below 1000 nM.
`COc1cc(C(=O)NC2CCCN(C)C2)ccc1Nc1ncc2c(n1)N(CC1CC1)CCC(=O)N2C` (centres unmarked) [compound 245, 4-(9-Cyclopropylmethyl-5-methyl-6-oxo-6,7,8,9-tetrahydro-5H-pyrimido[4,5-b][1,4]diazepin-2-ylamino)-3-methoxy-N-(1-methyl-piperidin-3-yl)-benzamide]: the IC50 was below 1000 nM.
For the compound `COc1cc(C(=O)NCC(C)(C)CN(C)C)ccc1Nc1ncc2c(n1)N(CC1CC1)CCC(=O)N2C` [compound 246, 4-(9-Cyclopropylmethyl-5-methyl-6-oxo-6,7,8,9-tetrahydro-5H-pyrimido[4,5-b][1,4]diazepin-2-ylamino)-N-(3-dimethylamino-2,2-dimethyl-propyl)-3-methoxy-benzamide], the IC50 was below 1000 nM.
For the compound `COc1cc(C(=O)NCCCN(C)C)ccc1Nc1ncc2c(n1)N(CC1CC1)CCC(=O)N2C` [compound 247, 4-(9-Cyclopropylmethyl-5-methyl-6-oxo-6,7,8,9-tetrahydro-5H-pyrimido[4,5-b][1,4]diazepin-2-ylamino)-N-(3-dimethylamino-propyl)-3-methoxy-benzamide], the IC50 is below 1000 nM.
Regarding `COc1cc(C(=O)NC2CCCC2)ccc1Nc1ncc2c(n1)N(CC1CC1)CCC(=O)N2C` [compound 248, N-Cyclopentyl-4-(9-cyclopropylmethyl-5-methyl-6-oxo-6,7,8,9-tetrahydro-5H-pyrimido[4,5-b][1,4]diazepin-2-ylamino)-3-methoxy-benzamide], the IC50 is below 1000 nM.
Turning to `COc1cc(C(=O)NCc2cccn2C)ccc1Nc1ncc2c(n1)N(CC1CC1)CCC(=O)N2C` [compound 249, 4-(9-Cyclopropylmethyl-5-methyl-6-oxo-6,7,8,9-tetrahydro-5H-pyrimido[4,5-b][1,4]diazepin-2-ylamino)-3-methoxy-N-(1-methyl-1H-pyrrol-2-ylmethyl)-benzamide], the IC50 was below 1000 nM.
The value for `COc1cc(C(=O)NC(C)(C)CN2CCCC2)ccc1Nc1ncc2c(n1)N(C1CCCC1)CC1(CC1)C(=O)N2C` [compound 250, 4-(9-Cyclopentyl-5-methyl-6-oxo-6,7,8,9-tetrahydro-5H-pyrimido[4,5-b][1,4]diazepin-3,1′-cyclopropane-2-ylamino)-N-(1,1-dimethyl-2-pyrrolidin-1-yl-ethyl)-3-methoxy-benzamide] was below 1000 nM; that for `COc1cc(C(=O)NC(C)(C)CN2CCCCC2)ccc1Nc1ncc2c(n1)N(C1CCCC1)CC1(CC1)C(=O)N2C` [compound 251, 4-(9-Cyclopentyl-5-methyl-6-oxo-6,7,8,9-tetrahydro-5H-pyrimido[4,5-b][1,4]diazepin-3,1′-cyclopropane-2-ylamino)-N-(1,1-dimethyl-2-piperidin-1-yl-ethyl)-3-methoxy-benzamide] was below 1000 nM.
The value for `COc1cc(C(=O)NC2CCN(Cc3ccccc3)CC2)ccc1Nc1ncc2c(n1)N(C1CCCC1)CC1(CC1)C(=O)N2C` [compound 252, 4-(9-Cyclopentyl-5-methyl-6-oxo-6,7,8,9-tetrahydro-5H-spiro[pyrimido[4,5-b][1,4]diazepin-3,1′-cyclopropane]-2-ylamino)-3-methoxy-N-(1-benzylpiperidin-4-yl)-benzamide] was below 1000 nM; that for `COc1cc(C(=O)NCC2CCN(C)CC2)ccc1Nc1ncc2c(n1)N(C1CCCC1)CC1(CC1)C(=O)N2C` [compound 253, 4-(9-Cyclopentyl-5-methyl-6-oxo-6,7,8,9-tetrahydro-5H-pyrimido[4,5-b][1,4]diazepin-3,1′-cyclopropane-2-ylamino)-3-methoxy-N-(1-methyl-piperidin-4-ylmethyl)-benzamide] was below 100 nM; that for `COc1cc(C(=O)NC2CC(C)(C)N(C)C(C)(C)C2)ccc1Nc1ncc2c(n1)N(C1CCCC1)CC1(CC1)C(=O)N2C` [compound 255, 4-(9-Cyclopentyl-5-methyl-6-oxo-6,7,8,9-tetrahydro-5H-spiro[pyrimido[4,5-b][1,4]diazepin-3,1′-cyclopropane]-2-ylamino)-3-methoxy-N-(1,2,2,6,6-pentamethyl-piperidin-4-yl)-benzamide] was below 100 nM.
The value for `COc1cc(C(=O)NCC(C)(C)CN(C)C)ccc1Nc1ncc2c(n1)N(C1CCCC1)CC1(CC1)C(=O)N2C` [compound 256, 4-(9-Cyclopentyl-5-methyl-6-oxo-6,7,8,9-tetrahydro-5H-pyrimido[4,5-b][1,4]diazepin-3,1′-cyclopropane-2-ylamino)-N-(3-dimethylamino-2,2-dimethyl-propyl)-3-methoxy-benzamide] was below 100 nM; that for `COc1cc(C(=O)NCc2ccncc2)ccc1Nc1ncc2c(n1)N(C1CCCC1)CC1(CC1)C(=O)N2C` [compound 258, 4(9-Cyclopentyl-5-methyl-6-oxo-6,7,8,9-tetrahydro-5H-pyrimido[4,5-b][1,4]diazepin-3,1′-cyclopropane-2-ylamino)-3-methoxy-N-pyridin-4-ylmethyl-benzamide] was below 100 nM.
Consider `COc1cc(C(=O)NCc2cccn2C)ccc1Nc1ncc2c(n1)N(C1CCCC1)CC1(CC1)C(=O)N2C` [compound 259, 4-(9-Cyclopentyl-5-methyl-6-oxo-6,7,8,9-tetrahydro-5H-pyrimido[4,5-b][1,4]diazepin-3,1′-cyclopropane-2-ylamino)-3-methoxy-N-(1-methyl-1 H-pyrrol-2-ylmethyl)-benzamide], for which the IC50 is below 100 nM.
The value for `COc1cc(C(=O)NC2CCCC2)ccc1Nc1ncc2c(n1)N(C1CCCC1)CC1(CC1)C(=O)N2C` [compound 260, N-Cyclopentyl-4-(9-Cyclopentyl-5-methyl-6-oxo-6,7,8,9-tetrahydro-5H-spiro[pyrimido[4,5-b][1,4]diazepin-3,1′-cyclopropane]-2-ylamino)-3-methoxy-benzamide] was below 100 nM; that for `CCc1cc(C(=O)NC2CCN(C)CC2)ccc1Nc1ncc2c(n1)N(C1CCCC1)CC1(CC1)C(=O)N2C` [compound 261, 4-(9-Cyclopentyl-5-methyl-6-oxo-6,7,8,9-tetrahydro-5H-spiro(pyrimido[4,5-b][1,4]diazepin-3,1′-cyclopropane]-2-ylamino)-3-ethyl-N-(1-methyl-piperidin-4-yl)-benzamide] was below 100 nM; that for `COc1cc(C(=O)NC2CCN(C)CC2)ccc1Nc1ncc2c(n1)N(CC1CC1)CC1(CC1)C(=O)N2C` [compound 262, 4-(9-Cyclopropylmethyl-5-methyl-6-oxo-6,7,8,9-tetrahydro-5H-pyrimido[4,5-b][1,4]diazepin-3,1′-cyclopropane-2-ylamino)-3-methoxy-N-(1-methyl-piperidin-4-yl)-benzamide] was below 100 nM.
As to `COc1ccc(C(=O)NCCOCCO)cc1Nc1ncc2c(n1)N(C1CCCC1)CCC(=O)N2C` [compound 263, 3-(9-Cyclopentyl-5-methyl-6-oxo-6,7,8,9-tetrahydro-5H-pyrimido[4,5-b][1,4]diazepin-2-ylamino)-N-[2-(2-hydroxy-ethoxy)-ethyl]-4-methoxy-benzamide], the concentration for half-maximal inhibition (IC50) is below 1000 nM.
The value for `CONC(=O)c1ccc(OC)c(Nc2ncc3c(n2)N(C2CCCC2)CCC(=O)N3C)c1` [compound 264, 3-(9-Cyclopentyl-5-methyl-6-oxo-6,7,8,9-tetrahydro-5H-pyrimido[4,5-b][1,4]diazepin-2-ylamino)-4,N-dimethoxy-benzamide] was below 1000 nM.
